Values quoted from earlier work in US20050272687A1, “Stable S-adenosyl-l-methionine” (priority 2004, published 2005).
Each block holds one compound with its values, some of them ahead of it.

Tests used:
[1] = in vivo
[2] = same conditions as in example 10 (room temperature, light, closed bottle), after 4 months
[3] = system: S-adenosyl-1-methionine-dependent methyltransferases
[4] = system: nucleolar 2-O-methyltransferase
[5] = system: alcoholic liver cirrhosis; settings: oral; as compared with a placebo treated group
[6] = during the course of the clinical trial

inhibition of enzyme-catalyzed transmethylation reactions [3]: potent inhibitor
Structure (SMILES): C[S@@+](CC[C@@H](N)C(=O)O)C[C@H]1O[C@@H](n2cnc3c(N)ncnc32)[C@H](O)[C@@H]1O (racemic) [(+)-SAM, (R,S)-S-adenosyl-1-methionine]

tightness of enzyme binding relative to (R,S)-S-adenosyl-1-methionine [4]: 10 fold
Structure (SMILES): C[S@@+](CC[C@H](N)C(=O)O)C[C@H]1O[C@@H](n2cnc3c(N)ncnc32)[C@H](O)[C@@H]1O [(S,S)-S-adenosyl-1-methionine]

The next lines start with the compound.

Structure (SMILES): C[S+](CC[C@H](N)C(=O)O)C[C@H]1O[C@@H](n2cnc3c(N)ncnc32)[C@H](O)[C@@H]1O.C[S+](CC[C@H](N)C(=O)O)C[C@H]1O[C@@H](n2cnc3c(N)ncnc32)[C@H](O)[C@@H]1O.O=S(=O)([O-])CCCCS(=O)(=O)[O-] (stereo partly drawn) [S-adenosyl-1-methionine 1,4 butanedisulfonate]
oral absorption compared with other salts [1]: better absorbed orally than any other salts | deterioration [2]: 43.9%

Structure (SMILES): C[S+](CC[C@H](N)C(=O)[O-])C[C@H]1O[C@@H](n2cnc3c(N)ncnc32)[C@H](O)[C@@H]1O (stereo partly drawn) [S-adenosyl-1-methionine]
overall mortality and/or progression to liver transplant [5]: 29% vs 12% | (R,S) S-adenosyl-1-methionine share after epimerization [6]: 55% | (S,S) S-adenosyl-1-methionine share after epimerization [6]: 45%

Structure (SMILES): CC(C)NCC(O)COc1cccc2ccccc12 (stereo not drawn) [propranolol]
potency of L-form relative to D-enantiomer (beta-adrenergic): 100 times

Structure (SMILES): C[S+](CC[C@H](N)C(=O)O)C[C@H]1O[C@@H](n2cnc3c(N)ncnc32)[C@H](O)[C@@H]1O.Cc1ccc(S(=O)(=O)[O-])cc1 (stereo partly drawn) [S-adenosyl-1-methionine tosylate]
deterioration [2]: 92.9%
